{
  "source": "patent US6174875A",
  "about": "“Benzoquinoid ansamycins for the treatment of cardiac arrest and stroke” (priority 1999, dated 2001)",
  "key": {"[1]": {"test_system": "hsp70 in HT22 cells", "experiment": "Western blot of inducible hsp70 expression in HT22 cells", "type": "cell-based, mouse", "method": "(§1) Cells were harvested and lysed by sonication in 0.25 M Tris-HCl, pH 7.5 and lysates clarified by centrifugation at 14,000 rpm for 10 minutes at 4 ° C. Equivalent amounts of lysate protein (5 μg) were used for Western blot analysis as described by Xiao et al. (1997) Mol. Endocrinol. 11: 1365. The inducible form of the 70 kDa heat shock protein, hsp70, was uniquely detected using the SPA-810 monoclonal antibody (StressGen). GA induction of hsp70 was evident within 3 hours of GA treatment, was maximal upon 9 hours of GA treatment, and persisted for at least 12 hours in the presence of GA."}, "[2]": {"test_system": "hsp90 in HT22 cells", "experiment": "Western blot of steady state hsp90 levels in HT22 cells", "type": "cell-based, mouse", "conditions": "0.1 μg/ml GA", "method": "as §1"}, "[3]": {"test_system": "HT22 cells", "experiment": "Glutamate-induced cytotoxicity in HT22 cells by phase contrast/light microscopy and trypan blue staining", "type": "cell-based, mouse", "method": "(§2) HT22 cells were seeded on 60 mm tissue culture dishes at 300,000 cells per dish and grown overnight. […] In order to provide a more accurate assessment of glutamate-induced oxidative toxicity, the ability of HT22 cells to metabolize 3-(4,5-[…]-2-yl)-2,5-diphenyl tetrazolium bromide (MTT) was assayed. The reduction of this dye by viable cells can easily be detected spectrophotometrically as described by Mosman (1983) J. Immunol. Methods 65:55 with reduced HT22 cell viability directly correlated with decreased metabolism of MTT (Shubert et al. (1992) Proc. Natl. Acad. Sci. USA 89:8264). HT22 cells were seeded on 96-well plates at 5,000 cells per well and grown for 12 hours. Cells were then treated with 2 mM, 5 mM or 10 mM concentrations of glutamate. […] After a total incubation period of 20 hours, cell viability was measured using an MTT assay as described by Li et al. (1997) Neuron 19:453. Briefly, 10 μl of MTT solution (5 mg/ml) was added to each well and cells incubated for an additional 4 hours. 100 μl of solubilization solution (50% dimethylformamide and 20% SDS, pH 4.8) was added and left on the cells 5 overnight, after which light absorption at 570 nm was measured. Values (% Viability) represent the average of quadruplicate (FIG. 1) or triplicate (FIG. 2) determinations±S.D. Similar results were obtained in a replicate experiment. Cell viability was expressed relative to control cells treated with GA or Herb alone."}, "[4]": {"test_system": "HT22 cells", "experiment": "MTT viability assay of glutamate-treated HT22 cells", "type": "cell-based, mouse", "method": "as §2, with “overnight. Cells were then incubated in the presence of 5 mM glutamate for 20 hours.” for “overnight.”"}, "[5]": {"test_system": "glutathione levels in HT22 cells", "experiment": "Cellular glutathione (GSH) levels in HT22 cells (monochlorobimane fluorescence)", "type": "cell-based, mouse", "conditions": "0.1 μg/ml GA, 5 mM glutamate, 2-8 hours (FIG. 3)", "method": "Cellular glutathione (GSH) levels were measured in HT22 cells as described previously by Kane (1993) Science 262:1274. Briefly, HT22 cells were seeded onto 96-well plates at 20,000 cells per well and grown overnight. […] Monochlorobimane was added to 40 μM and following an additional 30 minutes of incubation, fluorescence at 460 nm in response to excitation at 395 mn was measured using a Perkin Elmer fluorescence plate reader. Values represent the average of triplicate experiments±S.D."}, "[6]": {"test_system": "hsp70 in rat brain", "experiment": "Western blot of hsp70 in rat hippocampus after intracranial ventricular injection", "type": "in vivo", "conditions": "20 μg geldanamycin icv, 12 or 24 hours (FIGS. 5A, 5B)", "method": "(§3) Geldanamycin was delivered to rat brain by intracranial ventricular (icv) injection as follows. Rats were stereotaxically fitted with 4 mm×22 gauge guide cannulae directed at the lateral ventricle (AP-2.0, ML+2.0). […] The injector was removed and replaced with a stylet. At 12 or 24 hours after injection, hippocampi were isolated from which whole cell extracts were prepared and subjected to Western blot analysis to visualize raf- 1 and actin, or hsp70. Negative and positive control protein samples for hsp70 were prepared from untreated or heat shocked HT22 cells. Western blot analysis is depicted in FIGS. 5A and 5B in which the (-) and (+) lanes refer to the negative and positive control samples."}, "[7]": {"test_system": "raf-1 in rat brain", "experiment": "Western blot of raf-1 in rat hippocampus after intracranial ventricular injection", "type": "in vivo", "conditions": "20 μg geldanamycin icv, 12 or 24 hours (FIGS. 5A, 5B)", "method": "as §3"}, "[8]": {"test_system": "hsp70 in fibroblasts", "conditions": "cited from earlier work"}, "[9]": {"test_system": "heat shock proteins in myogenic H9c2 cells", "conditions": "cited from earlier work"}, "[10]": {"test_system": "heat shock proteins in rat cardiomyocytes", "conditions": "cited from earlier work"}, "[11]": {"test_system": "myogenic H9c2 cells and cardiomyocytes", "conditions": "pretreatment; cited from earlier work"}},
  "data": [
    {"compound": "COC1=C2C[C@@H](C)C[C@H](OC)[C@H](O)[C@@H](C)/C=C(\\C)[C@H](OC(N)=O)[C@@H](OC)/C=C\\C=C(/C)C(=O)NC(=CC1=O)C2=O", "note": "[geldanamycin]", "values": [
      {"measurement": "hsp70 induction by GA in the presence of glutamate", "setting": "[1]; 0.1 μg/ml GA + 5 mM glutamate", "result": "still able to induce hsp70"},
      {"measurement": "time GA-induced hsp70 levels are maintained in the presence of glutamate", "setting": "[1]; 0.1 μg/ml GA + 5 mM glutamate", "result": "up to 12 hours"},
      {"measurement": "persistence of hsp70 induction in the presence of GA", "setting": "[1]; 0.1 μg/ml GA, HT22 cells", "result": "at least 12 hours"},
      {"measurement": "time at which GA induction of hsp70 was evident", "setting": "[1]; 0.1 μg/ml GA, HT22 cells", "result": "≤ 3", "unit": "h"},
      {"measurement": "time of maximal GA induction of hsp70", "setting": "[1]; 0.1 μg/ml GA, HT22 cells", "result": 9, "unit": "h"},
      {"measurement": "induction of hsp70 protein levels at higher doses of GA", "setting": "[1]; doses above 0.1 μg/ml, HT22 cells", "result": "not significantly enhanced at higher doses"},
      {"measurement": "induction of hsp70 compared with heat shock", "setting": "[1]; vs 60 minute 42° C. heat shock, 0.1 μg/ml GA", "result": "as effective as a 60 minute 42 °C heat shock"},
      {"measurement": "steady state levels of hsp90", "setting": "[2]", "result": "not affected"},
      {"measurement": "protection from glutamate-induced oxidative toxicity (phase contrast)", "setting": "[3]; 0.1 μg/ml GA, 5 mM glutamate, GA added at same time or 1, 2 or 6 hours after glutamate", "result": "led to protection from glutamate-induced oxidative toxicity"},
      {"measurement": "HT22 cell growth rate, GA alone", "setting": "[3]; GA alone", "result": "appeared to reduce HT22 cell growth rate"},
      {"measurement": "cell death, GA alone", "setting": "[3]; GA alone, assessed after 24 hours", "result": "did not lead to cell death"},
      {"measurement": "protection when GA is given following glutamate treatment", "setting": "[4]; 0.1 μg/ml GA added after glutamate (FIG. 1)", "result": "retained its capacity to protect HT22 cells from oxidative stress"},
      {"measurement": "protection against glutamate cytotoxicity (MTT viability)", "setting": "[4]; 0.1 μg/ml GA, 10 mM glutamate, 20 h", "result": "less effective at this higher dose of glutamate"},
      {"measurement": "protection against glutamate cytotoxicity (MTT viability)", "setting": "[4]; 0.1 μg/ml GA, 2 and 5 mM glutamate, 20 h (FIG. 1)", "result": "effective protection"},
      {"measurement": "time after glutamate exposure at which protection by GA was still apparent", "setting": "[4]; 0.1 μg/ml GA, 2 or 5 mM glutamate", "result": 6, "unit": "h"},
      {"measurement": "recovery of glutathione levels", "setting": "[5]", "result": "did not lead to recovery of glutathione levels"},
      {"measurement": "expression of hsp70 in rat brain", "setting": "[6]", "result": "increased expression of hsp70"},
      {"measurement": "expression of raf-1 proto-oncogene in rat brain", "setting": "[7]", "result": "decreased expression of the raf-1 proto-oncogene"},
      {"measurement": "induction of hsp70 expression in fibroblasts", "setting": "[8]", "result": "induce hsp70 expression"},
      {"measurement": "induction of hsp70 expression in a myogenic cell line", "setting": "[9]", "result": "induce hsp70 expression"},
      {"measurement": "overexpression of heat shock proteins in myogenic H9c2 cells", "setting": "[9]; pretreatment", "result": "overexpression of heat shock proteins"},
      {"measurement": "induction of hsp70 expression in rat cardiomyocytes", "setting": "[10]", "result": "induce hsp70 expression"},
      {"measurement": "overexpression of heat shock proteins in cardiomyocytes", "setting": "[10]; pretreatment", "result": "overexpression of heat shock proteins"},
      {"measurement": "protection against simulated ischemia", "setting": "[11]", "result": "conferred protection against simulated ischemia"}
    ]}
  ]
}
